# According to patent publication US20140248634A1, “VIMENTIN AS A BIOMARKER FOR THE PROGRESSION OF MYELOPROLIFERATIVE NEOPLASMS” (University of Florida Research Foundation, priority 2011, published 2014):
# “Also recorded” adds a separate entry of the source. Starred links: 1 amine or outer side, 2 acyl side, 3 side chain; linkers in the order of their positions; H or OH if unused. Non-standard residues stand in square brackets, D forms with d. Residues, ends and D or L forms follow the SMILES beside them. *: point of attachment. hPhe = N[C@@H](CCc1ccccc1)C(=O)O; Morpholide = C1CN(*)CCO1; Cbz = O=C(OCc1ccccc1)*; CO = O=C([*:1])[*:2]; CH2F = FC*
# Key:
# vimentin [1] = experiment: Western blotting of HEL cell lysates with anti-vimentin antibody; assay type: cell-based, human; details: HEL cells; for effect on full-length vimentin, Jak2 vs non-Jak2 inhibitors: increasing concentrations; for cleavage of vimentin intermediate filaments in the viability samples: 30 μM G6 or 2% IDPN, 0, 6, 12, 24 or 48 hours
# Protocol: Protein concentrations in the whole cell lysates were determined using a Bradford assay (Bio-Rad). Cell lysates were then resuspended in SDS sample buffer. Whole cell lysates (˜30 μg) were separated by SDS-PAGE and then transferred onto nitrocellulose membranes for analysis by western blotting.
# (§1) Nitrocellulose membranes were first blocked with 5% milk/TBST solution at room temperature and then probed first with the different indicated primary antibodies overnight at 4° C. followed by the respective secondary antibodies (1:4000, GE Healthcare). The immuno-reactive bands were then visualized using the enhanced chemiluminescence system (Western Lightning Ultra, Perkin-Elmer). The following antibodies were used at the indicated dilutions: vimentin (Abcam and BD Biosciences, each at 1:500), STAT1 (Santa Cruz Biotechnology, 1:1000), and β-actin (Cell Signaling, 1:500).
# vimentin protein = experiment: Xenograft model of Jak2-V617F expressing HEL cells in NOD/SCID mice, bone marrow anti-vimentin immunohistochemistry; assay type: in vivo; details: NOD/SCID mice with HEL cells, 21 days
# Description: The xenograft model of Jak2-V617F expressing HEL cells in NOD/SCID mice has been described previously (15). Briefly, 3 months old NOD/SCID mice were randomized into 5 groups (n=6 per group). […] All other groups received a single tail vein injection of 2×10^6 Jak2-V617F positive HEL cells. Three weeks after HEL cell injection, the mice developed symptoms of a fully penetrant bone marrow malignancy. The mice then began receiving intraperitoneal injections of either vehicle control (DMSO) or G6 at doses of 0.1, 1, and 10 mg/kg/day for the next 21 days. At the end of the three week treatment period, all groups of mice were euthanized and bone marrow tissues were fixed in 10% neutral-buffered formalin and embedded in paraffin.
# Paraffin embedded bone marrow sections from each treatment group were analyzed by antivimentin immunohistochemistry. Antigen retrieval was carried out first by microwaving at 95° C. for 20 min in 1 mM EDTA-NaOH solution, pH 8.0. The section were then cooled, blocked with Protein Block (DAKO), and incubated with antivimentin antibody (Abcam, 1:100) for 2 hours at room temperature. Antigen-antibody comeplexes were detected using biotinylated secondary antibodies and streptavidin-peroxidase substrate (DAKO). Stained sections were then analyzed via a standard light microscope (Nikon) at 40× and 100× magnifications.
# vimentin [2] = experiment: 2-D differential in gel electrophoresis (2-D DIGE) of HEL cell proteins; assay type: cell-based, human; details: HEL cells, 25 μM, 12 hours, vs 0.25% DMSO
# Protocol: HEL cells treated either with vehicle control DMSO or 25 μM G6 for 12 hours. The cell pellets were resuspended in ice cold buffer containing 0.3% SDS, 20 mM Tris pH 8.0, 100 mM DTT, 10 μl protease inhibitor cocktail III (Calbiochem), 5 mM MgCl2 and 250 units of benzonase. The cell suspension was homogenized by sonication. Protein was precipitated with 9 volumes of ice cold 10% trichloroacetic acid (TCA) in acetone overnight at 4° C. Precipitated proteins were then dissolved in solubilization buffer (7 M urea, 2 M thiourea, 4% CHAPS, 0.2% SDS and 20 mM Tris, pH 8.0). After centrifugation at 43,000 rpm for 30 min, solubilized protein in the supernatant was quantified using the EZQ Protein Assay Kit (Invitrogen). Proteins (100 μg per sample) were minimally labeled with CyDye (GE Healthcare) as per the manufacturer's protocol. An internal standard, which is loaded on every gel, was created by mixing equal amounts of protein from all samples. Proteins from the DMSO treated samples were labeled with Cy3 (green) and the G6 treated samples were labeled with Cy5 (red). The internal standard was labeled with Cy2 (blue). […] The digital image was then analyzed with DeCyder 2D version 7.0 GE Healthcare). Information from replicate gels was analyzed with BVA Module (Biological Variation Analysis). […]
# HEL cells = experiment: Cell proliferation assay (trypan blue exclusion, hemocytometer); assay type: cell-based, human; details: 30 μM G6 or 2% IDPN, 0, 6, 12, 24 or 48 hours, vs DMSO
# Protocol: HEL cells were plated in 96-well plates and treated with either 0.25% DMSO, 30 μM G6 or 2% IDPN for the indicated periods of time. Cell viability was then assessed for each sample by trypan blue exclusion staining and hemocytometer.
# [3] = test system: Jak2-V617F-mediated HEL cell proliferation; details: previously demonstrated (14,15); cited from earlier work
# [4] = test system: vimentin intermediate filaments; experiment: Indirect immunofluorescence of vimentin in HEL cells; assay type: cell-based, human; details: 25 μM, 24 and 36 hr
# Protocol: HEL cells were cultured in RPMI in 100 mm dishes and treated with 25 μM G6 for the indicated periods of time. Following treatment, the cells were centrifuged, washed and resuspended in 1×PBS. Cells were then plated onto poly-L-lysine coated 8-chamber slides (Santa Cruz Biotechnology) and fixed at −20° C. in a mixture of 50% methanol and 50% acetone for 10 minutes. The fixed cells were then permeabilized with 0.2% Triton X-100 and blocked with 5% goat serum for 30 minutes at room temperature. The samples were then incubated overnight at 4° C. with a primary antibody of mouse anti-vimentin (BD Biosciences, 1:100). The next day, the cells were washed 4× with PBS at room temperature. The samples were then incubated with a FITC-conjugated anti-mouse secondary antibody (Santa Cruz Biotechnology) for one hour at room temperature. The cells were again washed with PBS, mounted with UltraCruz DAPI containing mounting media (Santa Cruz Biotechnology) and sealed with a cover slip. These cells were imaged using a 100× objective on an inverted fluorescence microscope (Olympus).
# caspase 3/7 = details: HEL cells, previously showed (15); cited from earlier work
# PARP = experiment: Western blotting of HEL cell lysates for PARP cleavage; assay type: cell-based, human; details: HEL cells, pretreated 4 hours, then 30 μM and 60 μM G6 for 24 hours
# Protocol: Cells (˜107) were washed with two volumes of ice-cold PBS and then lysed in 0.8 ml of ice-cold RIPA buffer (20 mM Tris pH 7.5, 10% glycerol, 1% Triton X-100, 1% deoxycholic acid, 0.1% SDS, 2.5 mM EDTA, 50 mM NaF, 10 mM Na4P2O7, 4 mM benzamidine, and 10 μg/mL aprotinin). Protein concentrations in the whole cell lysates were determined using a Bradford assay (Bio-Rad). Cell lysates were then resuspended in SDS sample buffer. Whole cell lysates (˜30 μg) were separated by SDS-PAGE and then transferred onto nitrocellulose membranes for analysis by western blotting.
# as §1
compound,measurement,setting,value
N#C/C(=C/c1ccc(O)c(O)c1)C(=O)NCc1ccccc1 [AG490],"effect on full-length vimentin, Jak2 vs non-Jak2 inhibitors",vimentin [1]; 24 hours,induced cleavage of vimentin dose-dependently
CC(=O)OCOC(=O)CN(CC(=O)OCOC(C)=O)c1ccccc1OCCOc1ccccc1N(CC(=O)OCOC(C)=O)CC(=O)OCOC(C)=O [BAPTA-AM],effect of pretreatment on G6-induced cleavage of vimentin,"vimentin [1]; 10 μM BAPTA-AM 2 hours, then 30 μM G6 for 24 hours",sufficient to protect vimentin from G6-induced cleavage
"CC(C)[C@H](NC(=O)N1CCOCC1)C(=O)N[C@@H](CCc1ccccc1)C(=O)CF [Calpain Inhibitor V, Mu-Val-HPh-CH2F] ({Morpholide-CO}-Val-[hPhe]-CH2F)",effect of pretreatment on G6-induced cleavage of vimentin,"vimentin [1]; calpain inhibitor pretreatment 4 hours, then increasing doses of G6 for 24 hours",prevented G6-induced cleavage of vimentin in a dose-dependent manner
CNc1ccc2oc(C[C@H]3O[C@@]4(CC[C@H]3C)O[C@H]([C@H](C)C(=O)c3ccc[nH]3)[C@H](C)C[C@H]4C)nc2c1C(=O)O [Compound A23187],cleavage of vimentin,"vimentin [1]; 10 μM, increasing periods of time",sufficient to induce cleavage of intermediate filament protein vimentin
"CCC(=C(CC)c1ccc(O)c(CN(CC)CC)c1)c1ccc(O)c(CN(CC)CC)c1 [Compound G6, 4,4′-(hex-3-ene-3,4-diyl)bis(2-((diethylamino)methyl)phenol)]",bone marrow vimentin protein level vs DMSO treated mice,vimentin protein; 0.1 mg/kg/day intraperitoneal,did not produce any observable change
same,bone marrow vimentin protein level vs DMSO treated mice,vimentin protein; 1 mg/kg/day intraperitoneal,clearly reduced the levels of vimentin protein
same,bone marrow vimentin protein level vs DMSO treated mice,vimentin protein; 10 mg/kg/day intraperitoneal,clearly reduced the levels of vimentin protein
same,vimentin protein expression (2-D DIGE),vimentin [2],down regulated; also recorded: significantly downregulated
same,viable cell numbers,HEL cells,time dependently decreased viable cell numbers
same,Jak2-V617F-mediated HEL cell proliferation,[3],inhibits Jak2-V617F-mediated HEL cell proliferation
same,apoptosis of HEL cells,[3],induces apoptosis
same,full-length vimentin (western blot),"vimentin [1]; 25 μM, 24 h, vs DMSO",disappearance of full-length vimentin
same,cleavage of full-length vimentin as a function of time,"vimentin [1]; 25 μM, varying lengths of time",cleaved into low molecular weight fragments
same,cleavage of vimentin intermediate filaments in the viability samples,vimentin [1],time-dependent cleavage of vimentin intermediate filaments
same,"effect on full-length vimentin, Jak2 vs non-Jak2 inhibitors",vimentin [1]; 24 hours,induced cleavage of vimentin dose-dependently
same,cleavage of full-length vimentin as a function of dose,"vimentin [1]; increasing doses, 24 hours",cleaved into low molecular weight fragments
same,specificity for vimentin over other cytoskeletal proteins (β-actin reprobe),vimentin [1]; same samples reprobed with anti-β-actin antibody,specificity of G6 for vimentin over other cytoskeletal proteins such as β-actin
same,cellular distribution of vimentin,[4],aggregated/localized in the perinuclear region of the cell
same,caspase 3/7 activation,caspase 3/7,causes caspase 3/7 activation in a time-dependent manner
"N#CCCNCCC#N [IDPN, 3′,3′-iminodipropiontrile, reference compound]",viable cell numbers,HEL cells,time dependently decreased viable cell numbers
same,cleavage of vimentin intermediate filaments in the viability samples,vimentin [1],time-dependent cleavage of vimentin intermediate filaments
COc1cccc(-c2cc(=O)c3ccccc3o2)c1N [PD98059],"effect on full-length vimentin, Jak2 vs non-Jak2 inhibitors",vimentin [1]; 24 hours,no effect on full-length vimentin
CC(C)(C)n1nc(-c2ccc(Cl)cc2)c2c(N)ncnc21 [PP2],"effect on full-length vimentin, Jak2 vs non-Jak2 inhibitors",vimentin [1]; 24 hours,no effect on full-length vimentin
C[C@@H]1C[C@@H]([C@H](O)CC2CC(=O)NC(=O)C2)C(=O)[C@@H](C)C1 [cycloheximide],effect of pretreatment on G6-induced cleavage of vimentin,"vimentin [1]; cycloheximide pretreatment 4 h, then increasing concentrations of G6 for 24 hours",not be blocked by pretreatment with cycloheximide
"COC(=O)C[C@H](NC(=O)[C@H](C)NC(=O)[C@@H](NC(=O)OCc1ccccc1)C(C)C)C(=O)CF [zVAD-fmk, Z-VAD (OMe)-FMK] (Cbz-Val-Ala-Asp(OMe)-CH2F)",effect of pretreatment on G6-induced cleavage of vimentin,"vimentin [1]; pretreated 4 hours, then 30 μM and 60 μM G6 for 24 hours",unable to prevent G6-induced cleavage of vimentin
same,effect of pretreatment on G6-induced cleavage of PARP,PARP,able to block the G6-induced cleavage of PARP
Jak Inhibitor I,"effect on full-length vimentin, Jak2 vs non-Jak2 inhibitors",vimentin [1]; 24 hours,induced cleavage of vimentin dose-dependently
